According to patent publication US20190389843A1, “PYRROLE mTORC INHIBITORS AND USES THEREOF” (Navitor Pharmaceuticals, Inc., priority 2016, published 2019):
Where a name gives a salt, the structure may show the parent alone.

How the values were obtained:
[1] = system: pAKT in MCF7 (measure of mTORC2 activity); experiment: AlphaLISA Ultra pAKT assay; assay type: cell-based; conditions: MCF-7 cells, 2 hours compound incubation
Method: (§1) Assay Protocol: • 1. […] 16,000˜20,000 cells will be seeded in 36 μL medium per well. • 2. Change the culture medium with fresh medium and incubate for another 2 hours. • 3. Add 12 μL (4×) compounds into the cell plate by HAMILTON. Final DMSO concentration is 0.5%. Incubate for 2 hours. • 4. Aspirate 38 μL by HAMILTON, 10 μL rest per well. • 5. Add 10 μL 2× lysis buffer using HAMILTON; total volume in wells is 20 μL. Allow cells to shake for 30 min. Cover plate by plastic foil and store plate at −80° C. up to analysis. • 6. […] Add 5 ul acceptor beads into assay plate and incubation for 2 hours • 8. Add 5 ul donor beads and incubation for 2 hours • 9. Count the plate by EnSpire Multimode Plate Reader

[2] = system: pS6K1 in MCF7 (measure of mTORC1 activity); experiment: AlphaLISA Ultra pS6K1 assay; assay type: cell-based; conditions: MCF-7 cells, 2 hours compound incubation
Method: as §1, with “12,000˜16,000” for “16,000˜20,000”, “(4λ)” for “(4×)”

Work on `Cc1c(CN2CCN(c3ccccc3Cl)CC2)cc(C(=O)N2CCN(c3cc(F)c(F)cc3C#N)CC2)n1C` [Example I-1] yielded an IC50 ([1]; Homo sapiens, MCF7, 2 h) greater than 1 µM and an IC50 ([2]; Homo sapiens, MCF7, 2 h) of 0.01 to 1 µM.

With `Cc1c(CN2CCN(c3ncccc3Cl)CC2)cc(C(=O)N2CCN(c3ccccn3)CC2)n1C` [Example I-2] the IC50 [1] was greater than 10 µM and the IC50 [2] was 1 to 3 µM.

Work on `Cc1c(CN2CCN(c3ncccc3Cl)CC2)cc(C(=O)N2CCN(c3cc(F)c(F)cc3C#N)CC2)n1C` [Example I-3] yielded an IC50 ([1]; Homo sapiens, MCF7, 2 h) greater than 10 µM and an IC50 ([2]; Homo sapiens, MCF7, 2 h) of 0.01 to 1 µM.

Compound `Cc1c(CN2CCN(c3ccccc3C#N)CC2)cc(C(=O)N2CCN(c3cc(F)c(F)cc3C#N)CC2)n1C` [Example I-4] has an IC50 ([1]; Homo sapiens, MCF7, 2 h) greater than 1 µM and an IC50 ([2]; Homo sapiens, MCF7, 2 h) of 0.01 to 1 µM.

Work on `Cc1c(CN2CCN(c3ccccc3C#N)CC2)cc(C(=O)N2CCN(c3oc(C4CC4)nc3C#N)CC2)n1C` [Example I-14] yielded an IC50 ([1]; Homo sapiens, MCF7, 2 h) greater than 10 µM and an IC50 ([2]; Homo sapiens, MCF7, 2 h) of 0.01 to 1 µM.

In the case of `Cc1c(CN2CCN(c3ccccc3C#N)CC2)cc(C(=O)N2CCN(c3nnccc3C#N)CC2)n1C` [Example I-15], the IC50 ([1]; Homo sapiens, MCF7, 2 h) is reported as greater than 10 µM and the IC50 ([2]; Homo sapiens, MCF7, 2 h) is reported as 1 to 3 µM.

With `Cc1c(CN2CCN(c3ccccc3C#N)CC2)cc(C(=O)N2CCN(c3cccnn3)CC2)n1C` [Example I-16] the IC50 ([1]; Homo sapiens, MCF7, 2 h) was greater than 10 µM and the IC50 ([2]; Homo sapiens, MCF7, 2 h) was 1 to 3 µM.

Work on `Cn1cc(CN2CCN(c3ccccc3C#N)CC2)cc1C(=O)N1CCN(c2nnccc2C#N)CC1` [Example I-17] yielded an IC50 ([1]; Homo sapiens, MCF7, 2 h) greater than 10 µM and an IC50 ([2]; Homo sapiens, MCF7, 2 h) of 3 to 10 µM.

Compound `Cc1c(CN2CCN(c3ccccc3C#N)CC2)cc(C(=O)N2CCN(c3ccccc3S(C)(=O)=O)CC2)n1C` [Example I-21] has an IC50 ([1]; Homo sapiens, MCF7, 2 h) greater than 10 µM and an IC50 ([2]; Homo sapiens, MCF7, 2 h) of 1 to 3 µM.

Compound `Cc1nc(C#N)c(N2CCN(C(=O)c3cc(CN4CCN(c5ccccc5C#N)CC4)c(C)n3C)CC2)o1` [Example I-22] has an IC50 ([1]; Homo sapiens, MCF7, 2 h) greater than 10 µM and an IC50 ([2]; Homo sapiens, MCF7, 2 h) of 1 to 3 µM.

With `Cc1c(CN2CCN(c3ccccc3C#N)CC2)cc(C(=O)N2CCN(c3ccccc3C#N)CC2)n1C` [Example I-23] the IC50 ([1]; Homo sapiens, MCF7, 2 h) was greater than 10 µM and the IC50 ([2]; Homo sapiens, MCF7, 2 h) was 0.01 to 1 µM.

`Cc1c(CN2CCN(c3ccccc3CCCN)CC2)cc(C(=O)N2CCN(c3ccccc3)C[C@@H]2C)n1C` [Example I-24, (S)-(4-((4-(2-(3-aminopropyl)phenyl)piperazin-1-yl)methyl)-1,5-dimethyl-1H-pyrrol-2-yl)(2-methyl-4-phenylpiperazin-1-yl)methanone ditrifluoroacetate salt] gave an IC50 ([1]; Homo sapiens, MCF7, 2 h) greater than 10 µM and an IC50 ([2]; Homo sapiens, MCF7, 2 h) of 3 to 10 µM.

Work on `Cc1c(CN2CCN(c3ccccc3Cl)CC2)cc(C(=O)N2CCN(c3cccc(CCCN)c3)C[C@H]2C)n1C` [Example I-27, (R)-(4-(3-(3-aminopropyl)phenyl)-2-methylpiperazin-1-yl)(4-((4-(2-chlorophenyl)piperazin-1-yl)methyl)-1,5-dimethyl-1H-pyrrol-2-yl)methanone trifluoroacetate salt] yielded an IC50 ([1]; Homo sapiens, MCF7, 2 h) greater than 10 µM and an IC50 ([2]; Homo sapiens, MCF7, 2 h) of 1 to 3 µM.

Compound `Cc1c(CN2CCN(c3ccccc3Cl)CC2)cc(C(=O)N2CCN(c3ccccc3)C[C@@H]2C)n1CCCN` [Example I-29, (S)-(1-(3-aminopropyl)-4-((4-(2-chlorophenyl)piperazin-1-yl)methyl)-5-methyl-1H-pyrrol-2-yl)(2-methyl-4-phenylpiperazin-1-yl)methanone dihydrochloride salt] has an IC50 ([1]; Homo sapiens, MCF7, 2 h) greater than 10 µM and an IC50 ([2]; Homo sapiens, MCF7, 2 h) of 3 to 10 µM.

For `Cc1c(CN2CCN(c3ccccc3Cl)CC2)cc(C(=O)N2CCN(c3cccc(CCCN)c3)C[C@@H]2C)n1C` [Example I-30, (S)-(4-(3-(3-aminopropyl)phenyl)-2-methylpiperazin-1-yl)(4-((4-(2-chlorophenyl)piperazin-1-yl)methyl)-1,5-dimethyl-1H-pyrrol-2-yl)methanone trifluoroacetate salt], the IC50 ([1]; Homo sapiens, MCF7, 2 h) was greater than 10 µM and the IC50 ([2]; Homo sapiens, MCF7, 2 h) was 3 to 10 µM.

`Cc1c(CN2CCN(c3ccccc3Cl)CC2)cc(C(=O)N2CCN(c3cccc4cc[nH]c34)C[C@@H]2C)n1C` [Example I-31, (S)-(4-(1H-indol-7-yl)-2-methylpiperazin-1-yl)(4-((4-(2-chlorophenyl)piperazin-1-yl)methyl)-1,5-dimethyl-1H-pyrrol-2-yl)methanone] was tested, and the IC50 ([1]; Homo sapiens, MCF7, 2 h) was greater than 10 µM and the IC50 ([2]; Homo sapiens, MCF7, 2 h) was 1 to 3 µM.

In the case of `Cc1c(CN2CCN(c3ccccc3Cl)CC2)cc(C(=O)N2CCN(c3ccc4[nH]ccc4c3)C[C@@H]2C)n1C` [Example I-33, (S)-(4-(1H-indol-5-yl)-2-methylpiperazin-1-yl)(4-((4-(2-chlorophenyl)piperazin-1-yl)methyl)-1,5-dimethyl-1H-pyrrol-2-yl)methanone trifluoroacetate salt], the IC50 ([1]; Homo sapiens, MCF7, 2 h) is reported as greater than 10 µM and the IC50 ([2]; Homo sapiens, MCF7, 2 h) is reported as 1 to 3 µM.

`Cc1c(CN2CCN(c3ccccc3Cl)CC2)cc(C(=O)N2CCN(c3ccc4cc[nH]c4c3)C[C@@H]2C)n1C` [Example I-34, (S)-(4-(1H-indol-6-yl)-2-methylpiperazin-1-yl)(4-((4-(2-chlorophenyl)piperazin-1-yl)methyl)-1,5-dimethyl-1H-pyrrol-2-yl)methanone trifluoroacetate salt] gave an IC50 ([1]; Homo sapiens, MCF7, 2 h) greater than 10 µM and an IC50 ([2]; Homo sapiens, MCF7, 2 h) of 1 to 3 µM.

`Cc1c(CN2CCN(c3ccccc3Cl)CC2)cc(C(=O)N2CCn3ncc(-c4ccccc4)c3C2)n1C` [Example I-35, (4-((4-(2-Chlorophenyl)piperazin-1-yl)methyl)-1,5-dimethyl-1H-pyrrol-2-yl)(3-phenyl-6,7-dihydropyrazolo[1,5-a]pyrazin-5(4H)-yl)methanone] was tested, and the IC50 ([1]; Homo sapiens, MCF7, 2 h) was greater than 10 µM and the IC50 ([2]; Homo sapiens, MCF7, 2 h) was 1 to 3 µM.

`Cn1c(C(=O)N2CCN(c3ccccc3)CC2)cc(CN2CCN(c3ccccc3Cl)CC2)c1C#N` [Example I-36] gave an IC50 ([1]; Homo sapiens, MCF7, 2 h) greater than 10 µM and an IC50 ([2]; Homo sapiens, MCF7, 2 h) of 0.01 to 1 µM.

`Cc1nc(N2CCN(C(=O)c3cc(CN4CCN(c5ccccc5Cl)CC4)c(C#N)n3C)CC2)ccc1F` [Example I-37] showed an IC50 ([1]; Homo sapiens, MCF7, 2 h) greater than 3 µM and an IC50 ([2]; Homo sapiens, MCF7, 2 h) of 0.01 to 1 µM.

Work on `Cc1cccc(N2CCN(C(=O)c3cc(CN4CCN(c5ccccc5Cl)CC4)c(C#N)n3C)CC2)n1` [Example I-38] yielded an IC50 ([1]; Homo sapiens, MCF7, 2 h) greater than 3 µM and an IC50 ([2]; Homo sapiens, MCF7, 2 h) of 0.01 to 1 µM.

`Cn1c(C(=O)N2CCN(c3ccccc3)CC2)cc(CN2CCN(c3ccccc3C#N)CC2)c1C#N` [Example I-39] showed an IC50 ([1]; Homo sapiens, MCF7, 2 h) greater than 10 µM and an IC50 ([2]; Homo sapiens, MCF7, 2 h) of 0.01 to 1 µM.

For `Cc1c(CN2CCN(c3ccccc3Cl)CC2)cc(C(=O)N2CCCN(c3cccc(C#N)c3)CC2)n1C` [Example I-40, 3-(4-(4-((4-(2-chlorophenyl)piperazin-1-yl)methyl)-1,5-dimethyl-1H-pyrrole-2-carbonyl)-1,4-diazepan-1-yl)benzonitrile], the IC50 ([1]; Homo sapiens, MCF7, 2 h) was greater than 10 µM and the IC50 ([2]; Homo sapiens, MCF7, 2 h) was 3 to 10 µM.

Work on `Cc1c(CN2CCCN(c3ccccc3Cl)CC2)cc(C(=O)N2CCN(c3cccc(C#N)c3)C[C@@H]2C)n1C` [Example I-41, (S)-3-(4-(4-((4-(2-chlorophenyl)-1,4-diazepan-1-yl)methyl)-1,5-dimethyl-1H-pyrrole-2-carbonyl)-3-methylpiperazin-1-yl)benzonitrile] yielded an IC50 ([1]; Homo sapiens, MCF7, 2 h) greater than 10 µM and an IC50 ([2]; Homo sapiens, MCF7, 2 h) of 1 to 3 µM.

In the case of `Cc1c(CN2CCN(c3ccccc3C#N)CC2)cc(C(=O)N2CCN(c3ccccn3)C[C@@H]2C)n1C` [Example I-42], the IC50 ([1]; Homo sapiens, MCF7, 2 h) is reported as greater than 3 µM and the IC50 ([2]; Homo sapiens, MCF7, 2 h) is reported as 0.01 to 1 µM.

`Cc1c(CN2CCN(c3ccccc3C#N)CC2)cc(C(=O)N2CCN(c3cccc(C#N)n3)CC2)n1C` [Example I-43] showed an IC50 ([1]; Homo sapiens, MCF7, 2 h) greater than 3 µM and an IC50 ([2]; Homo sapiens, MCF7, 2 h) of 0.01 to 1 µM.

`Cc1c(CN2CCN(c3ncccc3Cl)CC2)cc(C(=O)N2CCN(c3ccccn3)CC2)n1C` [Example I-44] gave an IC50 [1] greater than 3 µM and an IC50 [2] of 0.01 to 1 µM.

`Cc1c(CN2CCN(c3ccccc3C#N)CC2)cc(C(=O)N2CCCN(c3cccc(C#N)c3)CC2)n1C` [Example I-45, 2-(4-((5-(4-(3-cyanophenyl)-1,4-diazepane-1-carbonyl)-1,2-dimethyl-1H-pyrrol-3-yl)methyl)piperazin-1-yl)benzonitrile] showed an IC50 ([1]; Homo sapiens, MCF7, 2 h) greater than 10 µM and an IC50 ([2]; Homo sapiens, MCF7, 2 h) of 1 to 3 µM.

In the case of `Cc1c(C(C)N2CCN(c3ccccc3Cl)CC2)cc(C(=O)N2CCN(c3ccc(F)cc3)C[C@@H]2C)n1C` (stereo partly drawn) [Example I-46, (4-(1-(4-(2-Chlorophenyl)piperazin-1-yl)ethyl)-1,5-dimethyl-1H-pyrrol-2-yl)((S)-4-(4-fluorophenyl)-2-methylpiperazin-1-yl)methanone], the IC50 ([1]; Homo sapiens, MCF7, 2 h) is reported as greater than 10 µM and the IC50 ([2]; Homo sapiens, MCF7, 2 h) is reported as 1 to 3 µM.

In the case of `Cc1c(CN2CCCN(c3ccccc3Cl)CC2)cc(C(=O)N2CCN(c3ccc(F)cc3)C[C@@H]2C)n1C` [Example I-47, (S)-(4-((4-(2-chlorophenyl)-1,4-diazepan-1-yl)methyl)-1,5-dimethyl-1H-pyrrol-2-yl)(4-(4-fluorophenyl)-2-methylpiperazin-1-yl)methanone], the IC50 ([1]; Homo sapiens, MCF7, 2 h) is reported as greater than 10 µM and the IC50 ([2]; Homo sapiens, MCF7, 2 h) is reported as 1 to 3 µM.

In the case of `Cc1c(CN2CCN(c3ccccc3C#N)CC2)cc(C(=O)N2CCN(c3ccc4ncn(C)c4c3)CC2)n1C` [Example I-48], the IC50 ([1]; Homo sapiens, MCF7, 2 h) is reported as greater than 10 µM and the IC50 ([2]; Homo sapiens, MCF7, 2 h) is reported as 3 to 10 µM.

Work on `Cc1c(CN2CCN(c3ccccc3Cl)CC2)cc(C(=O)N2CCCN(c3ccc(F)cc3)CC2)n1C` [Example I-49, (4-((4-(2-Chlorophenyl)piperazin-1-yl)methyl)-1,5-dimethyl-1H-pyrrol-2-yl)(4-(4-fluorophenyl)-1,4-diazepan-1-yl)methanone] yielded an IC50 ([1]; Homo sapiens, MCF7, 2 h) greater than 10 µM and an IC50 ([2]; Homo sapiens, MCF7, 2 h) of 1 to 3 µM.

`Cc1c(CN2CCN(c3ccccc3C#N)CC2)cc(C(=O)N2CCCN(c3ccc(F)cc3)CC2)n1C` [Example I-50, 2-(4-((5-(4-(4-Fluorophenyl)-1,4-diazepane-1-carbonyl)-1,2-dimethyl-1H-pyrrol-3-yl)methyl)piperazin-1-yl)benzonitrile] gave an IC50 ([1]; Homo sapiens, MCF7, 2 h) greater than 10 µM and an IC50 ([2]; Homo sapiens, MCF7, 2 h) of 1 to 3 µM.
